Measurements reported in article PMC9136578 (Acta Pharmaceutica Sinica. B, 2021).
Numbered stars: 1 amine (or outer) side, 2 acyl side, 3 side chain; on linkers, the order of the positions; unused ones are H or OH. Square brackets hold non-standard residues; d marks the D form. Side chains are listed from the residue outwards. Peptide text beside a SMILES is read from it. * marks the point of attachment. C18 diacid = O=C(O)CCCCCCCCCCCCCCCCC(=O)*; γGlu = O=C(O)[C@H](CCC(=O)[*:2])N[*:1]; PEG2 = NCCOCCOCCC(=O)O

These molecules were tested against human GLP-1R (Homo sapiens, UniProt P43220) (assay: CRE-driven luciferase reporter).
Chain of human GLP-1R (P43220 24-463): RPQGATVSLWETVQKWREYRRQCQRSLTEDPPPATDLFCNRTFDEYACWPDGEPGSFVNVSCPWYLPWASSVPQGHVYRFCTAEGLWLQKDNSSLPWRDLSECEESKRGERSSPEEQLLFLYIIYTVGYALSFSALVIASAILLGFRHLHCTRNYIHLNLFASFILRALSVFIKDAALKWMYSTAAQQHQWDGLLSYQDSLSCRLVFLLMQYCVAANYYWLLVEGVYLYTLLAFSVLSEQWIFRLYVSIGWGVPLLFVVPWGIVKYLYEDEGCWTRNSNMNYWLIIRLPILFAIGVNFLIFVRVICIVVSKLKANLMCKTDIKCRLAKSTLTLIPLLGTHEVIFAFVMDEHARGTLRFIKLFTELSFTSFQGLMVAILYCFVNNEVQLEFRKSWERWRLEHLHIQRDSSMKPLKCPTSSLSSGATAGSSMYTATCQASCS
Format: cell-based

Structure (SMILES)	EC50
CC(C)C[C@H](NC(=O)[C@H](CC(C)C)NC(=O)[C@H](Cc1c[nH]c2ccccc12)NC(=O)[C@H](CCC(=O)O)NC(=O)[C@@H](NC(=O)[C@H](Cc1ccccc1)NC(=O)[C@H](CC(=O)O)NC(=O)[C@H](Cc1c[nH]cn1)NC(=O)[C@H](C)NC(=O)[C@H](C)NC(=O)[C@H](CCCCNC(=O)CCOCCOCCNC(=O)CCOCCOCCNC(=O)CC[C@H](NC(=O)CCCCCCCCCCCCCCCCC(=O)O)C(=O)O)NC(=O)[C@H](CO)NC(=O)[C@H](CC(=O)O)NC(=O)[C@H](CC(C)C)NC(=O)[C@H](Cc1ccc(O)cc1)NC(=O)[C@H](CCCCN)NC(=O)[C@H](CO)NC(=O)[C@H](Cc1ccc(O)cc1)NC(=O)[C@H](CC(=O)O)NC(=O)[C@H](CO)NC(=O)[C@@H](NC(=O)[C@H](Cc1ccccc1)NC(=O)[C@@H](NC(=O)CNC(=O)[C@H](CCC(N)=O)NC(=O)[C@@H](CO)NC(=O)[C@@H](N)Cc1c[nH]cn1)[C@@H](C)O)[C@@H](C)O)C(C)C)C(=O)N[C@@H](CCCNC(=N)N)C(=O)N[C@@H](C)C(N)=O [TA002] (H-H[dS]QGTFTSDYSKYLDSK([PEG2-PEG2-γGlu-C18 diacid])AAHDFVEWLLRA-NH2)	0.32 nM
CCCCCCCCCCCCCCCCCC(=O)NCCOCCOCCC(=O)NCCOCCOCCC(=O)NCCCC[C@H](NC(=O)[C@H](CC(=O)O)NC(=O)[C@H](CO)NC(=O)[C@@H](NC(=O)[C@H](Cc1ccccc1)NC(=O)[C@@H](NC(=O)CNC(=O)[C@H](CCC(N)=O)NC(=O)[C@@H](CO)NC(=O)[C@@H](N)Cc1c[nH]cn1)[C@@H](C)O)[C@@H](C)O)C(=O)N[C@@H](CO)C(=O)N[C@@H](CCCCN)C(=O)N[C@@H](Cc1ccc(OS(=O)(=O)F)cc1)C(=O)N[C@@H](CC(C)C)C(=O)N[C@@H](CC(=O)O)C(=O)NC(C)(C)C(=O)N[C@@H](CCCNC(=N)N)C(=O)N[C@@H](CCCNC(=N)N)C(=O)N[C@@H](C)C(=O)N[C@@H](CCC(N)=O)C(=O)N[C@@H](CC(=O)O)C(=O)N[C@@H](Cc1ccccc1)C(=O)N[C@H](C(=O)N[C@@H](CCC(N)=O)C(=O)N[C@@H](Cc1c[nH]c2ccccc12)C(=O)N[C@@H](CC(C)C)C(=O)N[C@@H](CCSC)C(=O)N[C@@H](CC(N)=O)C(=O)N[C@H](C(=O)NCC(=O)NCC(=O)N1CCC[C@H]1C(=O)N[C@@H](CO)C(=O)N[C@@H](CO)C(=O)NCC(=O)N[C@@H](C)C(=O)N1CCC[C@H]1C(=O)N1CCC[C@H]1C(=O)N1CCC[C@H]1C(=O)N[C@@H](CO)C(N)=O)[C@@H](C)O)C(C)C [TA006]	2.5 nM
CC(C)C[C@H](NC(=O)[C@H](CC(C)C)NC(=O)[C@H](Cc1c[nH]c2ccccc12)NC(=O)[C@H](CCC(=O)O)NC(=O)[C@@H](NC(=O)[C@H](Cc1ccccc1)NC(=O)[C@H](CC(=O)O)NC(=O)[C@H](Cc1c[nH]cn1)NC(=O)[C@H](C)NC(=O)[C@H](C)NC(=O)[C@H](CCCCNC(=O)CCOCCOCCNC(=O)CCOCCOCCNC(=O)CC[C@H](NC(=O)CCCCCCCCCCCCCCCCC(=O)O)C(=O)O)NC(=O)[C@H](CO)NC(=O)[C@H](CC(=O)O)NC(=O)[C@H](CC(C)C)NC(=O)[C@H](Cc1ccc(O)cc1)NC(=O)[C@H](CCCCN)NC(=O)[C@H](CO)NC(=O)[C@H](Cc1ccc(O)cc1)NC(=O)[C@H](CC(=O)O)NC(=O)[C@H](CO)NC(=O)[C@@H](NC(=O)[C@H](Cc1ccccc1)NC(=O)[C@@H](NC(=O)CNC(=O)[C@H](CCC(N)=O)NC(=O)[C@@H](CO)NC(=O)[C@@H](N)Cc1c[nH]cn1)[C@@H](C)O)[C@@H](C)O)C(C)C)C(=O)N[C@@H](CC(N)=O)C(=O)NCC(=O)NCC(=O)N1CCC[C@H]1C(=O)N[C@@H](CO)C(=O)N[C@@H](CO)C(=O)NCC(=O)N[C@@H](C)C(=O)N1CCC[C@H]1C(=O)N1CCC[C@H]1C(=O)N1CCC[C@H]1C(=O)N[C@@H](CO)C(N)=O [TA004] (H-H[dS]QGTFTSDYSKYLDSK([PEG2-PEG2-γGlu-C18 diacid])AAHDFVEWLLNGGPSSGAPPPS-NH2)	0.19 nM
